Patent publication US20220184091A1, “Methods of Treating Cancer with Chk1 Inhibitors” (Sierra Oncology, Inc., priority 2019, published 2022)

Experiments:
PD-L1 [1] = assay: Flow cytometry of surface PD-L1 in SCLC cell lines; assay type: cell-based; details: all SCLC cell lines tested; 1 μM for 72 hours
Description: Data presented as mean±SD and p values by t-test ***p<0.001.
Single-cell suspensions were prepared and stained according to standard protocols for flow cytometry with antibodies. For intracellular staining, cells were fixed and permeabilized with BD Cytofix/Cytoperm (BD Biosciences). The data were acquired on a Fortessa or Calibur platform (BD Biosciences) and analyzed with FlowJo software (version 7.6; Tree Star). For analyzing the abundance and the function of CD4+ or CD8+ TILs, single-cell suspensions were prepared from tumors and spleen and stained; the staining of spleen cells was used as the reference of lymphocyte gating, then CD3+ cells were gated, and then CD4+ or CD8+ population was analyzed.

MC38 = MC38 colon flank tumor growth in immunocompetent mice; assay type: in vivo, mouse
Description: (§1) Tumors were evaluated twice weekly for the duration of the study. Tumor volumes were measured on all mice three times per week and calculated (width^2×length×0.4) using manual calipers. Once the average tumor size was in the range of 120-150 mm^3, mice were randomized into dosing groups using stratified sampling by assigning three animals per group for short-term reverse-phase protein array analysis and long-term treatment. Dosing schedules and duration varied depending on the study. Mice were weighed three times per week for the duration of the study, and a decrease in body weight >15% was considered indicative of a toxic dose. The Student t-test was used to determine statistical significance between compound- and vehicle-treated groups.
(§2) Tumors cells were implanted into the flank of immunocompetent mice. Once the volumes of the tumor reached 150-200 mm^3, the mice were randomized and treated with either monotherapy of SRA737 at 100 mg/kg for 5-days-on/2-days-off p.o., anti-PD1 BIW at 10 mg/kg i.p. or the combination thereof.

CD4+ and CD8+ cells = assay: CD4 and CD8 IHC staining in MC38 tumors; assay type: in vivo, mouse; details: after 14 days, SRA737 7-days-on/7-days-off, antibody Days 3, 7 and 11
Description: Measurements were taken post treatment on day 15.
For immunohistochemistry, cryosections (8 μm) of tumor tissues were fixed with acetone and stained with antibody against mouse CD4 (Sinobiological, Cat. no. 50134-R001) and CD8 (eBioscience, Cat. No. 14-0808-82) and horseradish peroxidase-conjugated secondary antibody. The image of the entire stained tumor section was scanned with an Olympus BX41 microscope and a semi-quantitative immunohistochemical score was determined by visual examination of the entire stained section of the tumor. The score between 0-6 was assigned by taking into consideration the intensity of positive staining within the tumor section and the prevalence of positive staining within the entire tumor section.
The MC38 tumors were then harvested after 14 days of treatment with SRA737 monotherapy and its combination therapy with an […] (Days 3, 7 and 11) according to a modified dosing regimen of 7-days-on/7-days-off to determine the infiltration of CD4+ and CD8+ cells by immunohistochemistry staining. […] The tumor growth inhibition under this altered dosing regimen was 61% in SRA737 monotherapy and 63% in the combination therapy of SRA737 and anti-PD-1. […]

SNU-C1 = assay: Cell viability, colon cancer line SNU-C1; assay type: cell-based; details: Homo sapiens
Pan02 = Pan02 pancreatic flank tumor growth in immunocompetent mice; assay type: in vivo, mouse; details: SRA737 100 mg/kg 5-days-on/2-days-off p.o., anti-PD1 BIW 10 mg/kg i.p.
Description: as §1, §2

CXCL10 and CCL5 = assay: qPCR of CXCL10 and CCL5 in MBT-2 tumors; assay type: in vivo, mouse
Text: FIGS. 23A-D show the qPCR measurement of CXCL10 and CCL5 mRNA expression in MBT-2 (FIG. 23A and FIG. 23B) and MC38 (FIG. 23C and FIG. 23D) tumors resected after 7 or 14 days of treatment with SRA737 5/7 days. Data presented as mean±SD and p values by t-test * p<0.05, **p<0.01, ***p<0.001.
Real-time PCR was done using SYBR Select Master Mix (Life Technologies, cat #4472908) according to the manufacturer's protocol. Primers were purchased from Sigma Aldrich, Inc. Triplicate PCR reactions were run on ABI (7500 Fast Real Time PCR System). The comparative Ct method using the average 2ΔΔCT value for each set of triplicates was used, and the average of the biological replicates was calculated. Negative controls were included for every primer set, and GAPDH was used as the […].
The flank of immunocompetent mice was then treated with SRA737 monotherapy for 5-days-on/2-days-off for either one or two cycles and the expression of CCL5 and CXCL10 in extracted tumors were analyzed. […] The previously used dosing regimen of 5-days-on/2-days-off was modified to a schedule of 7-days-on/7-days-off for SRA737 treatment with or without co-treatment with anti-PD1 (Days 3, 7 and 11) based on the results of induction of chemokines secretion after 7 days.

PD-L1 [2] = assay: Western blot of total PD-L1 in SCLC cell lines; assay type: cell-based; details: all SCLC cell lines tested; 1 μM for 72 hours
Description: Western blot analysis was performed using SDS-PAGE followed by transfer to nitrocellulose membrane using the BioRad Gel system. Membranes were incubated in the following primary antibodies (1:1000) overnight: PD-L1 (CST), total and phospho- (S366) STING (CST), total and phospho- (S396) IRF3 (CST), phospho-YH2AX (CST) and Actin (Sigma). Secondary anti-rabbit, HRP-linked antibodies were purchased from Cell Signaling Biosciences and detected using the Chemidoc imaging system mage-captured with Image Studio Version 3.1 software.

N#Cc1cnc(Nc2cc(NCC3CNCCO3)c(C(F)(F)F)cn2)cn1 (stereo not shown) [SRA737, 5-[[4-[[morpholin-2-yl]methylamino]-5-(trifluoromethyl)-2-pyridyl]amino]pyrazine-2-carbonitrile]
cell surface PD-L1 expression (PD-L1 [1]): significantly increased | TGI (MC38; SRA737 100 mg/kg 5-days-on/2-days-off p.o., anti-PD1 BIW 10 mg/kg i.p.): 48% | tumor growth inhibition (MC38; altered regimen SRA737 7-days-on/7-days-off, anti-PD-1 Days 3, 7 and 11): 61% | infiltration of CD4+ and CD8+ cells into the tumors (CD4+ and CD8+ cells): significant increase | IC50 (SNU-C1): 1300 nM | TGI (Pan02): 59% | CCL5 levels (CXCL10 and CCL5; after 7 days, p<0.01): significantly induced | CCL5 levels (CXCL10 and CCL5; after 14 days): no significant difference | CXCL10 expression (CXCL10 and CCL5; after both 7 days and 14 days, p<0.05): significant induction | total PD-L1 levels (PD-L1 [2]): significantly increased
